The values that follow come from patent US10202372B2, “Trisubstituted pyrido[2,3-D]pyrimidines, methods for preparing same and therapeutic uses thereof” (CENTRE NATIONAL DE LA RECHERCHE SCIENTIFIQUE (C.N.R.S), priority 2012, dated 2019).

The subject of one data set is PC3. The data set is described as follows: Toxicity test on cells, PC3. The data set is classed as cell-based. The note with it: Homo sapiens, PC-3; 48 hours of treatment, Hoechst nuclei staining. An outline of the steps: (§1)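 Seed 4×10^3 cells/well; 24 h later add compound (0.1–25 μM, threefold steps); treat 48 h; PBS wash, fix cold EtOH/AcOH 90/5 20 min; Hoechst nuclear stain; high-content imaging.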

The target in a further data set is PI3Kα (Homo sapiens, UniProt P42336). The data set is described as follows: PI3Kα kinase activity, Adapta TR-FRET ADP detection. Particulars: purified p110α/p85α heterodimer, triplicate; read-out: Kinases IC50 PI3Kα. Format: biochemical. (In TR-FRET formats the signal depends on donor and acceptor labels being close together.)
Sequence of PI3Kα (P42336 whole entry): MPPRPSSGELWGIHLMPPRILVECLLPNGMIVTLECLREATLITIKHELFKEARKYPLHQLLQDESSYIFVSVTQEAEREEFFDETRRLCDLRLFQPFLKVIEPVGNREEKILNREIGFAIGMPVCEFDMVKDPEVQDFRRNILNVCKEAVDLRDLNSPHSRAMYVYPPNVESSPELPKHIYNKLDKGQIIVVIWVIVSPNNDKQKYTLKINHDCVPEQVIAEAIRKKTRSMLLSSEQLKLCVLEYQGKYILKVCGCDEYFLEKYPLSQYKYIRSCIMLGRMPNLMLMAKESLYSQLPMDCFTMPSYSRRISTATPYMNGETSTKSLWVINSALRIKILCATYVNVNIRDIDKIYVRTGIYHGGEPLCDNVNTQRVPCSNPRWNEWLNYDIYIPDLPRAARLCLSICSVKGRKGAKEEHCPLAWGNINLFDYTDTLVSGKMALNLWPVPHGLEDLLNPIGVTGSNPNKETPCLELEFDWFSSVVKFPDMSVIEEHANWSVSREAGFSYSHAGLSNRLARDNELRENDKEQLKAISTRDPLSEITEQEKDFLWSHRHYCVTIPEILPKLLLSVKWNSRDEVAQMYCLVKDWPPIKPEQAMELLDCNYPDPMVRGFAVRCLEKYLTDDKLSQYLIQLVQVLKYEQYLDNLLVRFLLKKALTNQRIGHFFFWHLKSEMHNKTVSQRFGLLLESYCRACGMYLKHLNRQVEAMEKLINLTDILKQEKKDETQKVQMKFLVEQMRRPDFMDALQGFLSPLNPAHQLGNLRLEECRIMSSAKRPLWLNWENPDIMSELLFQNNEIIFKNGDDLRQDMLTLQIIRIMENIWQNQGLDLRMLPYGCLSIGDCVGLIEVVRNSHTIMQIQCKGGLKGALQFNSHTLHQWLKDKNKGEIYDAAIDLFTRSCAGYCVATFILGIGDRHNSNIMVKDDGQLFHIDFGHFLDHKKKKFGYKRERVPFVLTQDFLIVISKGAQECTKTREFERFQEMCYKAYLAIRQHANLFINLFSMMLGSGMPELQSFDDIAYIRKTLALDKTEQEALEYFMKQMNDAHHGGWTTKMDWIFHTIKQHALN
Sequence of PI3Kα (P27986 whole entry partner): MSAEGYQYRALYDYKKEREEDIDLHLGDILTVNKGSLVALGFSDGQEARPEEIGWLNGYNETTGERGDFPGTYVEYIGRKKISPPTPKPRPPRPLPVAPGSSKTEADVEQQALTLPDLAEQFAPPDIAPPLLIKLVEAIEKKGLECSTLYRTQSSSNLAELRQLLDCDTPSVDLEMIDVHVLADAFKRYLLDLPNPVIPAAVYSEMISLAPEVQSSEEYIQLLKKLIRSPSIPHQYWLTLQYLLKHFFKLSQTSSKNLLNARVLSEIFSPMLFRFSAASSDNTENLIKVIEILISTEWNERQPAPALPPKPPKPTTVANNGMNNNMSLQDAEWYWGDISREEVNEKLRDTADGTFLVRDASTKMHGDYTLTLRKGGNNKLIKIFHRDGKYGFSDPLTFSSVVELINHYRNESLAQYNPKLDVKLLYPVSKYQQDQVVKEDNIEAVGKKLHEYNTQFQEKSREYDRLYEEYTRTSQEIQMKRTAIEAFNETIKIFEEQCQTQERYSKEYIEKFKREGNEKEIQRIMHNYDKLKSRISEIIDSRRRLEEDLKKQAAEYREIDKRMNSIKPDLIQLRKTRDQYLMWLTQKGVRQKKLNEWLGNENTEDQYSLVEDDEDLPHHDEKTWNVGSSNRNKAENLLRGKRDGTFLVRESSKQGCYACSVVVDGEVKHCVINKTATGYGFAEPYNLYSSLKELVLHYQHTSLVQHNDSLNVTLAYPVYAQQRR
Another data set deals with PI3Kγ (Homo sapiens, UniProt P48736). As to the kind of experiment: PI3Kγ kinase activity, Adapta TR-FRET ADP detection. The note with it: p110γ catalytic subunit; read-out: Kinases IC50 PI3Kγ. Format: biochemical.
A further data set concerns MDA. As to the kind of experiment: Toxicity test on cells, MDA. Format: cell-based. Particulars: 48 hours of treatment, Hoechst nuclei staining.
A further data set deals with mTOR (Homo sapiens, UniProt P42345). The data set is described as follows: mTOR kinase activity, LANCE Ultra TR-FRET. Format: biochemical. The note with it: truncated mTOR protein, triplicate; read-out: Kinases IC50 mTOR. In short, it runs like this: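 Truncated mTOR (aa 1-1359), 40 μM ATP and 200 μM unphosphorylated peptide (solution concentrations before mixing) in HEPES pH 7.5 with MnCl2/MgCl2, 120 min at room temperature, triplicates. Stopped with EDTA; Eu-labelled anti-phosphopeptide antibody, TR-FRET read at 665 nm; IC50 taken as 50% signal change.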
Sequence of mTOR (P42345 1360-2549): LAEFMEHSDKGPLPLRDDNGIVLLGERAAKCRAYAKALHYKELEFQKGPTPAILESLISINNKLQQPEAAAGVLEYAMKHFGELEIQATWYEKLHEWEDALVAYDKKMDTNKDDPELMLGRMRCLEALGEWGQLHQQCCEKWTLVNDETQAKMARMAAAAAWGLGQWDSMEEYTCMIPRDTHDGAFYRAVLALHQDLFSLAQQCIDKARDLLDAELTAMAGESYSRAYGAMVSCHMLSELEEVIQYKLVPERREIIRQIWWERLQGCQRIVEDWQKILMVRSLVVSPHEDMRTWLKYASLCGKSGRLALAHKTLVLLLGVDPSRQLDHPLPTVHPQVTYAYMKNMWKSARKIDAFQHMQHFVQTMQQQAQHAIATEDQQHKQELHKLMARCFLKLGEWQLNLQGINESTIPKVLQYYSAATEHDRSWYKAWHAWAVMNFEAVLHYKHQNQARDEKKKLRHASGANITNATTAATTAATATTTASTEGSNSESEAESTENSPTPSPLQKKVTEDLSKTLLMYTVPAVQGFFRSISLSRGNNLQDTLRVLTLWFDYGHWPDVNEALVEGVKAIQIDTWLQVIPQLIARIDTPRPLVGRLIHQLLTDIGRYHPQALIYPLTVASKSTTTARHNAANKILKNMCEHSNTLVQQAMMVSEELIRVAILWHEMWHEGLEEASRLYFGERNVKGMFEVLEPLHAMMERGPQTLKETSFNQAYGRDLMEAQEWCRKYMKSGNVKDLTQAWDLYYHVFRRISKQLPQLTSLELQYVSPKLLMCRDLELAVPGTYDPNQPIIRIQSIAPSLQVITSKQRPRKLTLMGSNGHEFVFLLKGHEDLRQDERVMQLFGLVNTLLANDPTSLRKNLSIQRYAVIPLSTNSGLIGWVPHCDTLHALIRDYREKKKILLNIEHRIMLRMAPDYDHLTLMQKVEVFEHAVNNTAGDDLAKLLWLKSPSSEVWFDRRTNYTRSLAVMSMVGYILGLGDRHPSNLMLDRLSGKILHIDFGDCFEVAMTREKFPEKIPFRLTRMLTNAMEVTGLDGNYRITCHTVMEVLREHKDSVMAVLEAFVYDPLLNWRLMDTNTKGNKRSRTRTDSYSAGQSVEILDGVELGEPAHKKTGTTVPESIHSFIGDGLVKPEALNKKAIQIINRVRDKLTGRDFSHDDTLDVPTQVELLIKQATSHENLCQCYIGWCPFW

The subject of the next data set is Fibroblasts. As to the kind of experiment: Toxicity test on cells, Fibroblasts. The data set is classed as cell-based. The note with it: Fibroblast; 48 hours of treatment, Hoechst nuclei staining. An outline of the steps: as §1
A further data set has as its system HUH7. As to the kind of experiment: Toxicity test on cells, HUH7. Particulars: Homo sapiens, Huh-7; 48 hours of treatment, Hoechst nuclei staining. Format: cell-based. An outline of the steps:
as §1

In another data set the test system is HCT116. The data set is described as follows: Toxicity test on cells, HCT116. The note with it: Homo sapiens, HCT-116; 48 hours of treatment, Hoechst nuclei staining. Format: cell-based. An outline of the steps: as §1
In a further data set the target is PI3Kδ (Homo sapiens, UniProt O00329). As to the kind of experiment: PI3Kδ kinase activity, Adapta TR-FRET ADP detection. The data set is classed as biochemical. Particulars: purified p110δ/p85α heterodimer; read-out: Kinases IC50 PI3Kδ.
Sequence of PI3Kδ (O00329 whole entry): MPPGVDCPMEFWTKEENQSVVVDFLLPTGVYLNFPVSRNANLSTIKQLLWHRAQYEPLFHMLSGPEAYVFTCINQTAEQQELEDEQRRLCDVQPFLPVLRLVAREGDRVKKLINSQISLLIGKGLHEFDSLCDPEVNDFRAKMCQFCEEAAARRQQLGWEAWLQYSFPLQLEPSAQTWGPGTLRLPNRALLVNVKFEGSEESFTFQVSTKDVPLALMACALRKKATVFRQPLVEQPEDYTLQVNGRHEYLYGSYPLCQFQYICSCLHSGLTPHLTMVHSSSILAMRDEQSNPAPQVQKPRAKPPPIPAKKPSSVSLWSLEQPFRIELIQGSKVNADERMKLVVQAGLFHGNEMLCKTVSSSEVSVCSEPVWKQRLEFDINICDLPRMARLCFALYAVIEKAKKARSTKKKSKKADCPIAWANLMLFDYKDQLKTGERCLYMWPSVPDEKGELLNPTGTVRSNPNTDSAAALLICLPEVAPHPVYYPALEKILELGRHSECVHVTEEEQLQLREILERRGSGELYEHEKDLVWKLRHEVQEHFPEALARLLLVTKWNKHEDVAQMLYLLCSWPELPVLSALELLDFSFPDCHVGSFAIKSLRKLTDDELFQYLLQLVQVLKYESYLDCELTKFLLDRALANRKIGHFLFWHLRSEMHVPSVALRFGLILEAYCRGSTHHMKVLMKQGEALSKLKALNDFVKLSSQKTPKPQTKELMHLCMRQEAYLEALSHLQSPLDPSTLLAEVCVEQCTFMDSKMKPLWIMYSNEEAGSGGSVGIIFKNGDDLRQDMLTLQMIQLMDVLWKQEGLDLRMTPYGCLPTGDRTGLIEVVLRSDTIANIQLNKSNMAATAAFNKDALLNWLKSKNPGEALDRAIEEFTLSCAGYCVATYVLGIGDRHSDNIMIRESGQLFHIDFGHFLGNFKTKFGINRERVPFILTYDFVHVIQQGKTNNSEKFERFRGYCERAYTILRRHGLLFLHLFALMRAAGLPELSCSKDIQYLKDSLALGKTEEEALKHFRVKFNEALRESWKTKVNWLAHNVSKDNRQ
Sequence of PI3Kδ (P27986 whole entry partner): as the sequence (P27986 whole entry partner) above
The subject of a further data set is CaCo2. As to the kind of experiment: Toxicity test on cells, CaCo2. Format: cell-based. The note with it: Homo sapiens, Caco-2; 48 hours of treatment, Hoechst nuclei staining. An outline of the steps:
as §1

For another data set, the system named is NCl. The data set is described as follows: Toxicity test on cells, NCl. The data set is classed as cell-based. Particulars: 48 hours of treatment, Hoechst nuclei staining. In short, it runs like this: as §1
Another data set concerns HacaT. As to the kind of experiment: Toxicity test on cells, HacaT. Format: cell-based. The note with it: Homo sapiens, 48 hours of treatment, Hoechst nuclei staining. As to the method:
The compounds according to the invention were also tested on the cell lines HuH7, CaCo-2, HCT116, PC3, NCl, HacaT and Fibroblasts.
Operating Procedure: The cells were cultivated according to the ECACC recommendations. The toxicity test of the compounds on these cells was conducted as follows: 4×10^3 cells/well were sown in 96 wells. 24 hours after sowing the cells, the cells were exposed to increased concentrations of the compounds (0.1 μM-0.3 μM-0.9 μM-2.7 μM-8.3 μM-25 μM). After 48 hours of treatment, the cells were washed in PBS and bound in a cold ethanol/acetic acid (90/5) mixture for 20 minutes. Next, the nuclei were coloured with […] (Sigma). The acquisition of images and the analysis was carried out by means of a reader Cellomics ArrayScan VTI/HCS (Thermo Scientific).

Regarding `OCc1cccc(-c2nc(N3CCOCC3)c3ncc(Cl)cc3n2)c1` [Compound 8, (3-(7-Chloro-4-morpholinopyrido[3,2-d]pyrimidin-2-yl)phenyl)methanol], the melting point (in general, the temperature of the solid-liquid transition) came to 157 °C. For the same compound, the IC50 (as a rule, the point on the concentration scale where inhibition reaches its midpoint) in the data set on PC3 came out at 20 µM. Moreover, the IC50 at PI3Kα was 0.032 µM. Also, the IC50 at PI3Kγ was found to be 0.431 µM. Moreover, half-maximal inhibition with MDA (IC50) required 20 µM. Besides, the IC50 on mTOR was > 50 µM. In the data set on Fibroblasts, this compound yielded an IC50 of 2 µM. In the data set with HUH7, this compound registered an IC50 of 25 µM. Further, half-maximal inhibition with HCT116 (IC50) required 5 µM. The IC50 on PI3Kδ came to 0.016 µM. In addition, the IC50 in the data set with CaCo2 is 3 µM. Moreover, the IC50 in the data set on NCl was > 25 µM.
Compound `COc1ccc(-c2nc(N3CCOCC3)c3ncc(Cl)cc3n2)cc1` [Compound 9, 4-(7-chloro-2-(4-methoxyphenyl)pyrido[3,2-d]pyrimidin-4-yl)morpholine] registered a melting point of 176 °C. In addition, the IC50 with PC3 was > 25 µM. Further, the IC50 on PI3Kα was 6.2 µM. In addition, the IC50 on PI3Kγ amounted to 3.1 µM. The IC50 with MDA is > 25 µM. On mTOR, the IC50 was > 50 µM. In the data set with Fibroblasts, the IC50 was > 25 µM. Besides, in the data set on HUH7, the IC50 was > 25 µM. For the same compound, the half-maximal inhibitory concentration (IC50) in the data set with HacaT is > 25 µM. The IC50 in the data set with HCT116 is > 25 µM. For the same compound, the IC50 at PI3Kδ was found to be 0.363 µM. Further, the IC50 in the data set with CaCo2 is > 25 µM. The IC50 in the data set with NCl is > 25 µM.
Turning to `C=Cc1cnc2c(N3CCOCC3)nc(-c3ccc(O)cc3)nc2c1` [Compound 16, 4-(4-Morpholino-7-vinylpyrido[3,2-d]pyrimidin-2-yl)phenol], the melting point is > 260 °C. For the same compound, the half-inhibitory concentration (IC50) in the data set with PC3 was > 25 µM. For the same compound, the IC50 on PI3Kα was determined as 1.6 µM. The IC50 at PI3Kγ is 1.7 µM. In the data set with MDA, the IC50 is > 25 µM. Also, at mTOR, the IC50 turned out to be 0.37 µM. In the data set with Fibroblasts, the IC50 is > 25 µM. Moreover, the IC50 in the data set on HUH7 was > 25 µM. Also, in the data set on HacaT, the IC50 was > 25 µM. Also, the IC50 in the data set with HCT116 was > 25 µM. Also, the IC50 at PI3Kδ was determined as 2.1 µM. In the data set on CaCo2, the IC50 is > 25 µM. In addition, the IC50 in the data set with NCl is > 25 µM.
As to `O=C(Nc1ccc(CO)cc1)Nc1ccc(-c2nc(N3CCOCC3)c3ncc(CN4CCOCC4)cc3n2)cc1` [Compound 78, 1-[4-(hydroxymethyl)phenyl]-3-{4-[4-(morpholin-4-yl)-7-(morpholin-4 ylmethyl)pyrido[3,2-d]pyrimidin-2-yl]phenyl}urea], the melting point was > 260 °C. This compound also showed an IC50 in the data set with PC3 of 2 µM. The IC50 on PI3Kα came to 0.023 µM. Besides, in the data set on MDA, the IC50 came to 3 µM. The IC50 with Fibroblasts was > 25 µM. In the data set with HUH7, this compound came in with an IC50 of 2 µM. In the data set with HacaT, this compound showed an IC50 of 2 µM. Moreover, the IC50 in the data set with HCT116 was 1 µM. In the data set on CaCo2, this compound returned an IC50 of 12 µM. This compound also displayed an IC50 with NCl of 3 µM.
